Where two headings read alike, the source gives them in different places.
Tests used:
[1] = system: HCC827 cells (EGFR delE746-A750); assay: Cell proliferation (CellTiter Glo, 72 hr), HCC827; format: cell-based, human; settings: for GI50: Homo sapiens; for Ratio WT/mutant: proliferation GI50, WT (A431) vs HCC827
Protocol: (§1) A431 human epidermoid carcinoma, H1975 human NSCLC and HCC827 human NSCLC adenocarcinoma cells were obtained from the American Type Culture Center (Manassas, Va.). A431 cells were grown in DMEM (Invitrogen, Carlsbad, Calif.) supplemented with 10% FBS (HyClone, South Logan, Utah) and 1% Penicillin-Streptomycin (P/S, Lonza, Walkersville, Md.).
(§2) Growth inhibition (GI50) values were determined by Graph Pad Prism.

[2] = target: EGFR L858R/T790M (H1975 cells) (Homo sapiens (Human), UniProt P00533, L858R/T790M); assay: EGFR signaling immunoblot (1 hr) in H1975 cells; format: cell-based; settings: signaling EC50, WT (A431) vs H1975
Protocol: as §1
(§3) All primary antibodies were obtained from Cell Signaling (Danvers, Mass.) and used at 1:1000. Secondary antibodies were used at 1:10,000. Goat anti-mouse IgG IRDye 800CW antibody was obtained from LiCor Biosciences (Lincoln, Nebr.) and goat anti-rabbit IgG Alexa Fluor 680 was obtained from Invitrogen.
(§4) Cells were grown in 12-well plates (Corning, Coring, N.Y.) to 90% confluence and then incubated in low-serum (0.1% FBS) media for 16-18 hr. […] A431 cells were then stimulated with 50 ng/ml EGF (Peprotech, Rocky Hill, N.J.) for 15 min. After treatment, cell monolayers were washed with cold PBS (Invitrogen) and immediately lysed by scrapping into 60 uL cold Cell Extraction Buffer (Invitrogen) supplemented with Complete Protease inhibitors (Roche, Indianapolis, Ind.) and PhosphoSTOP (Roche) phosphatase inhibitors.
(§5) Phospho-protein signals were quantitated using Odyssey Infrared Imaging (Li-Cor Biosciences).
Blots were normalized as indicated above. […] Normalized data was fitted using a sigmoidal curve analysis program (Graph Pad Prism version 5) with variable Hill slope to determine the EC50 values.

[3] = system: H1975 cells (EGFR L858R/T790M); assay: Cell proliferation (CellTiter Glo, 72 hr), H1975; format: cell-based, human; settings: for GI50: Homo sapiens, NCI-H1975; for Ratio WT/mutant: proliferation GI50, WT (A431) vs H1975
Protocol: as §1, §2

[4] = system: A431 cells (WT EGFR); assay: Cell proliferation (CellTiter Glo, 72 hr), A431; format: cell-based; settings: Homo sapiens, A-431
Protocol: as §1, §2

[5] = target: T1, EGFR T790M/L858R (Homo sapiens (Human), UniProt P00533, L858R/T790M); settings: for covalent modification of EGFR T790M/L858R: MS analysis
[6] = target: pEGFR in H1975 cells (Homo sapiens (Human), UniProt P00533, L858R/T790M); settings: 500 nM for 1 hr, 0-24 hr
[7] = target: T1, EGFR T790M/L858R; assay: Omnia biochemical assay, EGFR-T790M/L858R; settings: biochemical IC50, WT EGFR vs T790M/L858R
Protocol: Kinase reactions were started with the addition of 45 μL of the ATP/Tyr-Sox peptide substrate mix and monitored every 71 seconds for 60 minutes at λex360/λem485 in a Synergy^4 plate reader from BioTek (Winooski, Vt.).

[8] = target: EGFR delE746-A750 (HCC827 cells) (Homo sapiens (Human), UniProt P00533, DEL746-750); assay: EGFR signaling immunoblot (1 hr) in HCC827 cells; format: cell-based; settings: signaling EC50, WT (A431) vs HCC827
Protocol: as §1, §3, §4, §5
Blots were normalized as indicated above. […]

[9] = HCC827 cells, 72 hr, read-out: HCC827 GI50
[10] = H1975 cells, 72 hr, read-out: H1975 GI50
[11] = A431 cells, 72 hr, read-out: WT EGFR GI50
[12] = Table 2, HCC827 cells (delE746-A750), read-out: Comparative GI50, HCC827
[13] = Table 2, H1975 cells (L858R/T790M), read-out: Comparative GI50, H1975
[14] = Table 2, A431 cells (WT EGFR), read-out: Comparative GI50, A431

Structure (SMILES)	GI50 [1, 9] [nM]	Ratio WT/mutant [1]	GI50 [3, 10] [nM]	Ratio WT/mutant [3]	GI50 [4, 11] [nM]	other results
C=CC(=O)Nc1cccc(Nc2nc(Nc3ccc(OC)cc3OC)ncc2Cl)c1 [Compound I-21, N-(3-(5-chloro-2-(2,4-dimethoxyphenylamino)pyrimidin-4-ylamino)phenyl)acrylamide]	500 to 1000	>5	> 1000	>1	> 1000	Ratio WT/mutant [2]: >5
C=CC(=O)Nc1cccc(Oc2nc(Nc3ccc(OC)c(OC)c3OC)ncc2C(F)(F)F)c1 [Compound I-10, N-(3-(5-(trifluoromethyl)-2-(2,3,4-trimethoxyphenylamino)pyrimidin-4-yloxy)phenyl)acrylamide]	100 to 500	>10	100 to 500	>10	> 1000	Ratio WT/mutant [2]: >50
C=CC(=O)Nc1cccc(Oc2nc(Nc3ccc(OC)c(OC)c3OC)ncc2Br)c1 [Compound I-8, N-(3-(5-bromo-2-(2,3,4-trimethoxyphenylamino)pyrimidin-4-yloxy)phenyl)acrylamide]	100 to 500	–	> 1000	–	> 1000	–
C=CC(=O)Nc1cccc(Oc2nc(Nc3ccccc3OC)ncc2C(F)(F)F)c1 [Compound I-2, N-(3-(2-(2-methoxyphenylamino)-5-(trifluoromethyl)pyrimidin-4-yloxy)phenyl)acrylamide]	100 to 500	–	> 1000	–	> 1000	covalent modification of EGFR T790M/L858R [5]: covalently modify; duration of action after washout (pEGFR inhibition) [6]: prolonged duration of action
C=CC(=O)Nc1cccc(Oc2nc(Nc3ccccc3OC)ncc2F)c1 [Compound I-19, N-(3-(5-fluoro-2-(2-methoxyphenylamino)pyrimidin-4-yloxy)phenyl)acrylamide]	100 to 500	>10	> 1000	>1	> 1000	–
C=CC(=O)Nc1cccc(Nc2nc(Nc3ccccc3OC)ncc2Cl)c1 [Compound I-18, N-(3-(5-chloro-2-(2-methoxyphenylamino)pyrimidin-4-ylamino)phenyl)acrylamide]	500 to 1000	>5	> 1000	>1	> 1000	–
C=CC(=O)Nc1cccc(Oc2nc(Nc3cccc(OC)c3OC)ncc2Cl)c1 [Compound I-17, N-(3-(5-chloro-2-(2,3-dimethoxyphenylamino)pyrimidin-4-yloxy)phenyl)acrylamide]	–	–	–	–	–	Ratio WT/mutant [7]: >35
C=CC(=O)Nc1cccc(Oc2nc(Nc3cccc(OC)c3OC)ncc2Br)c1 [Compound I-6, N-(3-(5-bromo-2-(2,3-dimethoxyphenylamino)pyrimidin-4-yloxy)phenyl)acrylamide]	500 to 1000	>1	500 to 1000	>1	> 1000	–
C=CC(=O)Nc1cccc(Nc2nc(Nc3ccccc3OC)ncc2Br)c1 [Compound I-22, N-(3-(5-bromo-2-(2-methoxyphenylamino)pyrimidin-4-ylamino)phenyl)acrylamide]	500 to 1000	–	500 to 1000	–	> 1000	–
C=CC(=O)Nc1cccc(Oc2nc(Nc3ccc(OC)cc3OC)ncc2Br)c1 [Compound I-13, N-(3-(5-bromo-2-(2,4-dimethoxyphenylamino)pyrimidin-4-yloxy)phenyl)acrylamide]	100 to 500	–	500 to 1000	–	> 1000	–
C=CC(=O)Nc1cccc(Nc2nc(Nc3cccc(OC)c3OC)ncc2C(F)(F)F)c1 [Compound I-16, N-(3-(2-(2,3-dimethoxyphenylamino)-5-(trifluoromethyl)pyrimidin-4-ylamino)phenyl)acrylamide]	500 to 1000	–	> 1000	–	> 1000	–
C=CC(=O)Nc1cccc(Oc2nc(Nc3ccc(OC)cc3OC)ncc2Cl)c1 [Compound I-15, N-(3-(5-chloro-2-(2,4-dimethoxyphenylamino)pyrimidin-4-yloxy)phenyl)acrylamide]	100 to 500	–	> 1000	–	> 1000	–
C=CC(=O)Nc1cccc(Nc2nc(Nc3ccccc3OC)ncc2C(F)(F)F)c1 [Compound I-1, N-(3-(2-(2-methoxyphenylamino)-5-(trifluoromethyl)pyrimidin-4-ylamino)phenyl)acrylamide]	10 to 100	>20	100 to 500	>10	> 1000	GI50 [1, 12]: 10 to 100 nM; Ratio WT/mutant [2]: >50; time to complete modification of EGFR T790M/L858R ([5]; 10-fold excess of compound): ≤ 30 min; mass shift as percent of compound mass ([5]; 10-fold excess of compound, MALDI): 113%; covalent modification of EGFR T790M/L858R [5]: completely modifies; GI50 [3, 13]: 100 to 500 nM; GI50 [4, 14]: > 1000 nM; Ratio WT/mutant [8]: >50; duration of action after washout (pEGFR inhibition) [6]: prolonged duration of action
C=CC(=O)Nc1cccc(Nc2nc(Nc3ccc(OC)cc3OC)ncc2Br)c1 [Compound I-20, N-(3-(5-bromo-2-(2,4-dimethoxyphenylamino)pyrimidin-4-ylamino)phenyl)acrylamide]	100 to 500	>10	> 1000	>1	> 1000	–
C=CC(=O)Nc1cccc(Oc2nc(Nc3ccc(OC)cc3OC)ncc2C(F)(F)F)c1 [Compound I-9, N-(3-(2-(2,4-dimethoxyphenylamino)-5-(trifluoromethyl)pyrimidin-4-yloxy)phenyl)acrylamide]	100 to 500	–	100 to 500	–	> 1000	–
C=CC(=O)Nc1cccc(Nc2nc(Nc3ccc(OC)c(OC)c3OC)ncc2Cl)c1 [Compound I-4, N-(3-(5-chloro-2-(2,3,4-trimethoxyphenylamino)pyrimidin-4-ylamino)phenyl)acrylamide]	100 to 500	–	100 to 500	–	> 1000	–
C=CC(=O)Nc1cccc(Nc2nc(Nc3cccc(OC)c3OC)ncc2Br)c1 [Compound I-14, N-(3-(5-bromo-2-(2,3-dimethoxyphenylamino)pyrimidin-4-ylamino)phenyl)acrylamide]	–	–	–	–	–	Ratio WT/mutant [7]: >50
C=CC(=O)Nc1cccc(Oc2nc(Nc3cccc(OC)c3OC)ncc2C(F)(F)F)c1 [Compound I-23, N-(3-(2-(2,3-dimethoxyphenylamino)-5-(trifluoromethyl)pyrimidin-4-yloxy)phenyl)acrylamide]	> 1000	–	> 1000	–	> 1000	–
C=CC(=O)Nc1cccc(Nc2nc(Nc3ccc(OC)c(OC)c3OC)ncc2C(F)(F)F)c1 [Compound I-11, N-(3-(5-(trifluoromethyl)-2-(2,3,4-trimethoxyphenylamino)pyrimidin-4-ylamino)phenyl)acrylamide]	10 to 100	>40	100 to 500	>10	> 1000	GI50 [1, 12]: 10 to 100 nM; Ratio WT/mutant [2]: >50; GI50 [3, 13]: 100 to 500 nM; GI50 [4, 14]: > 1000 nM; Ratio WT/mutant [8]: >5
C=CC(=O)Nc1cccc(Nc2nc(Nc3ccc(OC)c(OC)c3OC)ncc2Br)c1 [Compound I-5, N-(3-(5-bromo-2-(2,3,4-trimethoxyphenylamino)pyrimidin-4-ylamino)phenyl)acrylamide]	100 to 500	>20	> 1000	>1	> 1000	Ratio WT/mutant [2]: >50

— US10081606B2, “Heteroaryl compounds and uses thereof” (Celgene CAR LLC, priority 2010, dated 2018)
